A short description of data set [1]: Dermal toxicity of granular compositions (Example 2, Table I). The following applies: rabbit, in vivo, topical or ocular, male albino rabbits, 24 h contact, 14 days observation, read-out: LD50 in mg/kg Body Weight. The source says:
Dermal toxicity of granular compositions of the present invention as compared to conventional granular compositions containing the same pesticide, using male albino rabbits as test animal.
1. Five male albino rabbits weighing approximately 2.2 to 3.5 kilograms are selected for each dosage level. The hair is shaved from the entire trunk.
2. Saran tubing or "Vinylite" film, VU 1900, 12 inches wide, 0.04 millimeters thick and of suitable length to fit around the rabbit.
3. One felt cloth bandage measuring approximately 9×18 inches.
4. Four pieces of 11/2 inches adhesive tape approximately 14 inches long.
1. The granular composition to be tested is placed in the center of the plastic film and is moistened with water.
2. The rabbits underside is moistened with water and the animals placed belly down on the material. The plastic film is then bought up and around the animal and secured at each end with strips of adhesive tape.
3. The felt cloth is then placed under the belly and brought up and around the animal and secured to the body with the remaining two strips of adhesive tape.
1. The animal is placed on the plastic film and is wrapped and the film secured with adhesive tape.
2. The test material is then injected under the plastic with an appropriate size needle and syringe.
3. […]
By the above procedure the dermal toxicity of the granular compositions prepared in Example 1 is determined. […]

The subject of another data set is mammals. The following applies: ingestion, inhalation or dermal absorption; cited from earlier work.
Another data set concerns insects and nematodes. The following applies: food and fodder crops; cited from earlier work.

Take `CCOP(=S)(OCC)SCSC(C)(C)C`: the LD50 at 336 h in data set [1] lay in the range of 1 to 1.4 mg/kg. In addition, the “toxicity to mammals when introduced into the mammalian circulatory system” value in the data set on mammals is “extremely toxic to mammals”. In the data set on insects and nematodes, the “control of a broad spectrum of insects and nematodes” value was “highly effective”.

Source of the values: patent publication US4059700A, “Dermal toxicity of solid compositions containing a montmorillonite type of clay and an organophosphorus pesticide” (priority 1976, dated 1977).
